Experimental data from the SangsterLogP compilation.

Assay: method code SF-HPLC, from DOI: 10.1023/a:1015933504191, PMID: 2122435
Details: pH 7.4

CCC(CC)OC(=O)n1cnc(C[C@H](NC(=O)[C@@H]2CCC(=O)N2)C(=O)N2CCC[C@H]2C(N)=O)c1
logD: 0.2

CC(C)COC(=O)n1cnc(C[C@H](NC(=O)[C@@H]2CCC(=O)N2)C(=O)N2CCC[C@H]2C(N)=O)c1
logD: -0.44

COC(=O)n1cnc(C[C@H](NC(=O)[C@@H]2CCC(=O)N2)C(=O)N2CCC[C@H]2C(N)=O)c1
logD: -1.88

CCOC(=O)n1cnc(C[C@H](NC(=O)[C@@H]2CCC(=O)N2)C(=O)N2CCC[C@H]2C(N)=O)c1
logD: -1.3

CCCC(CCC)OC(=O)n1cnc(C[C@H](NC(=O)[C@@H]2CCC(=O)N2)C(=O)N2CCC[C@H]2C(N)=O)c1
logD: 1.2

CCCCCCOC(=O)n1cnc(C[C@H](NC(=O)[C@@H]2CCC(=O)N2)C(=O)N2CCC[C@H]2C(N)=O)c1
logD: 0.71

CCCCCCCCOC(=O)n1cnc(C[C@H](NC(=O)[C@@H]2CCC(=O)N2)C(=O)N2CCC[C@H]2C(N)=O)c1
logD: 1.88

CC(C)OC(=O)n1cnc(C[C@H](NC(=O)[C@@H]2CCC(=O)N2)C(=O)N2CCC[C@H]2C(N)=O)c1
logD: -0.8

CCCCC(CC)COC(=O)n1cnc(C[C@H](NC(=O)[C@@H]2CCC(=O)N2)C(=O)N2CCC[C@H]2C(N)=O)c1 (some centres not stated)
logD: 1.82

NC(=O)[C@@H]1CCCN1C(=O)[C@H](Cc1cn(C(=O)OCc2ccccc2)cn1)NC(=O)[C@@H]1CCC(=O)N1
logD: -0.11

NC(=O)[C@@H]1CCCN1C(=O)[C@H](Cc1cn(C(=O)OC2CCCCC2)cn1)NC(=O)[C@@H]1CCC(=O)N1
logD: 0.6

CCCCOC(=O)n1cnc(C[C@H](NC(=O)[C@@H]2CCC(=O)N2)C(=O)N2CCC[C@H]2C(N)=O)c1
logD: -0.47
